Data reported in ChEMBL document CHEMBL5344475, “Indole-containing pharmaceuticals: targets, pharmacological activities, and SAR studies” (RSC Med Chem, 2024).

Tests used:
[1] = Terminal half life in human; assay type: ADME; details: read-out: beta t1/2 (converted)
[2] = Plasma clearance in iv dosed C57BL/6J mouse; assay type: ADME, organism-based
[3] = Cmax in human plasma; assay type: ADME, cell-free
[4] = Apparent oral clearance in human at 1 mg, po by LC-MS/MS analysis; assay type: ADME, organism-based; details: in vivo
[5] = Binding affinity to MT1 receptor (unknown origin) assessed as inhibition constant; set-up: species or system Homo sapiens
[6] = Terminal half life in human at 10 mg/kg, iv; details: in vivo, read-out: beta t1/2 (converted)
[7] = biological target: T1, Prostaglandin G/H synthase 2 (Homo sapiens, UniProt P35354); assay: Inhibition of COX-2 (unknown origin) using arachidonic acid as substrate preincubated for 15 mins followed by substrate addition by colorimetric assay
T1 sequence (P35354 whole entry): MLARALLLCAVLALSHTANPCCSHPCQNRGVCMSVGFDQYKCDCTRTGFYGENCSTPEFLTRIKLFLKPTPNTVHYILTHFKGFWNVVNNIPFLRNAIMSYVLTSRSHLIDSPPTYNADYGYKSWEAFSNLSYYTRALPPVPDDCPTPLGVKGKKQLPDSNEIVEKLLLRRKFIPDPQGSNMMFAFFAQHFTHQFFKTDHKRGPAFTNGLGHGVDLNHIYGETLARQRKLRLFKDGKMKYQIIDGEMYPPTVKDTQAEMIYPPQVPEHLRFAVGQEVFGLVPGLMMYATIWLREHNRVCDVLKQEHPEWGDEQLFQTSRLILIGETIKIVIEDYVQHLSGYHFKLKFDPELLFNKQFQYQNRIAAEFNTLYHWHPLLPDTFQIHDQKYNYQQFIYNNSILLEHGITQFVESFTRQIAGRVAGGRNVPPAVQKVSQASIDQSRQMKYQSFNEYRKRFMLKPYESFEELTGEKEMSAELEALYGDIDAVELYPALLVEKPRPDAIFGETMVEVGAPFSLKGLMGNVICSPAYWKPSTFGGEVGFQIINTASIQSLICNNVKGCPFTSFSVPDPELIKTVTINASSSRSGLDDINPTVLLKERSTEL

[8] = biological target: Prostaglandin G/H synthase 1 (Homo sapiens, UniProt P23219); assay: Inhibition of COX1 (unknown origin)
[9] = Half life of compound in PBS buffer; assay type: physicochemical
[10] = AUC in Sprague-Dawley rat at 10 mg/kg, iv by LC-MS/MS analysis; assay type: ADME, organism-based; set-up: dose 10 mg/kg, route iv; details: in vivo
[11] = Tmax in human plasma; assay type: ADME, cell-free
[12] = Volume of distribution in Wistar rat; assay type: ADME; details: in vivo
[13] = Oral bioavailability in mouse; assay type: ADME, organism-based; details: in vivo
[14] = Elimination half life in human at 7.5 to 100 mg; assay type: ADME; details: dose 7.5-100 mg, read-out: beta t1/2 (converted)
[15] = AUC in ICR mouse; assay type: ADME; details: in vivo
Dopamine receptor = assay: Inhibition of dopamine receptor (unknown origin); assay type: protein assay, Homo sapiens
D(1A) dopamine receptor = D(1A) dopamine receptor (Homo sapiens, UniProt P21728); assay: Binding affinity to dopamine D1 receptor (unknown origin) assessed as inhibition constant
[16] = Apparent oral renal clearance in human; assay type: ADME; details: read-out: CL(app)
[17] = Tmax in human; assay type: ADME
[18] = Half life in human; assay type: ADME
Half life in human = details: in vivo
[19] = biological target: Beta-2 adrenergic receptor (Homo sapiens, UniProt P07550); assay: Binding affinity to human beta 2 adrenergic receptor assessed as inhibition constant
[20] = Volume of distribution in human at 2.5 mg; assay type: ADME
[21] = Half life in human plasma; assay type: ADME, cell-free
[22] = Volume of distribution at steady state in iv dosed human; details: in vivo, read-out: Vdss
[23] = Plasma protein binding in human assessed as unbound fraction; assay type: ADME, cell-free
[24] = Inhibition of tyrosine kinase (unknown origin); set-up: species or system Homo sapiens
[25] = biological target: T2, DNA polymerase alpha catalytic subunit (Homo sapiens, UniProt P09884); assay: Inhibition of DNA polymerase alpha (unknown origin)
T2 sequence (P09884 whole entry): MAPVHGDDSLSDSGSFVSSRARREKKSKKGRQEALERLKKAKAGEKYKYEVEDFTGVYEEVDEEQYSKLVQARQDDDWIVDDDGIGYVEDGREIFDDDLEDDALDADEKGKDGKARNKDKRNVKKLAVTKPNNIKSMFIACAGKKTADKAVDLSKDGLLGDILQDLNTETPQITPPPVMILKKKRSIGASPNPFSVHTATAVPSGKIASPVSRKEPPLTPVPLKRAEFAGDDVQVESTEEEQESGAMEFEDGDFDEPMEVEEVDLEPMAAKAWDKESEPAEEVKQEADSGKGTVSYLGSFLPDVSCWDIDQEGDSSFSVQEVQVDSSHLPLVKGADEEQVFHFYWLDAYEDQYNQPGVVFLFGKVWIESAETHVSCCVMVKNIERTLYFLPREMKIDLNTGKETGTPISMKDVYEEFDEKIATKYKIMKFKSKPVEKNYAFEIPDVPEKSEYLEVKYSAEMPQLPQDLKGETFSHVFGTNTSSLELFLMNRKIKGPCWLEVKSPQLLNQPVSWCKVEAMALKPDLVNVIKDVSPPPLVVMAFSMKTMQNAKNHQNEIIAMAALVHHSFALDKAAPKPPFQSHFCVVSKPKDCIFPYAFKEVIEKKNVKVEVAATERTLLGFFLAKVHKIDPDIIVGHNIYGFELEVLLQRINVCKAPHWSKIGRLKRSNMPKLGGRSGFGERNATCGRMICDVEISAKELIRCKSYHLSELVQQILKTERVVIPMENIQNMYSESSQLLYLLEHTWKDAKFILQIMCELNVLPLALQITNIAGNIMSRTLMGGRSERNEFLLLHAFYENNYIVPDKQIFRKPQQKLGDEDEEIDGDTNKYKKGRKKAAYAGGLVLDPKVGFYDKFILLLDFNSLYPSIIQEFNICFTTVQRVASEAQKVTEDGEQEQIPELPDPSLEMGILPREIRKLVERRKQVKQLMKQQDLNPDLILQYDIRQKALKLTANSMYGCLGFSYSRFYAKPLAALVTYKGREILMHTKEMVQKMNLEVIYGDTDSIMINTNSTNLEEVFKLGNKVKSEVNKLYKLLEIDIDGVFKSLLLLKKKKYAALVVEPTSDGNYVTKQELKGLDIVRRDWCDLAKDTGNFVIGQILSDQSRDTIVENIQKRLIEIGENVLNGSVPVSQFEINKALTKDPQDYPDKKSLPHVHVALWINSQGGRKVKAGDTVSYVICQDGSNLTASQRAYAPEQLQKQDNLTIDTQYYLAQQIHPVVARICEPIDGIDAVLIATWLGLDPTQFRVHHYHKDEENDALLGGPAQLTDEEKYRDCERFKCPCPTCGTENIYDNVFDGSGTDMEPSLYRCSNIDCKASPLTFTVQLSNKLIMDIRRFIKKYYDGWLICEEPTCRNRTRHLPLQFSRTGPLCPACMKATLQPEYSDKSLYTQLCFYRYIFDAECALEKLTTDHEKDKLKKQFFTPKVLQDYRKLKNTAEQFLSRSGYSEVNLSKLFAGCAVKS

[26] = Effective half life in human; details: in vivo, read-out: t1/2eff (converted)
[27] = Apparent volume of distribution in Sprague-Dawley rat at 1 mg/kg, iv; assay type: ADME, organism-based; details: in vivo
[28] = Cmax in human at 4 mg, po; assay type: ADME; set-up: dose 4 mg, route po; details: in vivo
[29] = Blood clearance in Wistar rat at 0.3 mg/kg, iv; assay type: ADME, organism-based
[30] = Terminal half life in iv dosed mouse; assay type: ADME, organism-based; details: in vivo, read-out: beta t1/2 (converted)
[31] = Plasma clearance in iv dosed human; details: in vivo
[32] = Volume of distribution at steady state in human; details: in vivo, read-out: Vdss
[33] = Apparent oral clearance in human at 100 mg, po by LC-MS/MS analysis; assay type: ADME, organism-based; details: in vivo

Sequence of Beta-2 adrenergic receptor (P07550 whole entry): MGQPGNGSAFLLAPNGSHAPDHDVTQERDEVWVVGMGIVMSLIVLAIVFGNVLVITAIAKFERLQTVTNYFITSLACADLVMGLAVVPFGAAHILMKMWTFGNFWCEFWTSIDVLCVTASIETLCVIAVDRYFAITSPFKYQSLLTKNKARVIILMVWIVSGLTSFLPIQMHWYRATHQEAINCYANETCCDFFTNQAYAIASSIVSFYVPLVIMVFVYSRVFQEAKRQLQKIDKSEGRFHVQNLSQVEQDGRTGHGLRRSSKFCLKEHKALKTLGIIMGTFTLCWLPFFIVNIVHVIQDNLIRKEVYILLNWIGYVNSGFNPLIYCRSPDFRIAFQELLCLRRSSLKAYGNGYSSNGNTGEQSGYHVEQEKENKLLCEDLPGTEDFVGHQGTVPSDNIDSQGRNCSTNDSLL
Sequence of D(1A) dopamine receptor (P21728 whole entry): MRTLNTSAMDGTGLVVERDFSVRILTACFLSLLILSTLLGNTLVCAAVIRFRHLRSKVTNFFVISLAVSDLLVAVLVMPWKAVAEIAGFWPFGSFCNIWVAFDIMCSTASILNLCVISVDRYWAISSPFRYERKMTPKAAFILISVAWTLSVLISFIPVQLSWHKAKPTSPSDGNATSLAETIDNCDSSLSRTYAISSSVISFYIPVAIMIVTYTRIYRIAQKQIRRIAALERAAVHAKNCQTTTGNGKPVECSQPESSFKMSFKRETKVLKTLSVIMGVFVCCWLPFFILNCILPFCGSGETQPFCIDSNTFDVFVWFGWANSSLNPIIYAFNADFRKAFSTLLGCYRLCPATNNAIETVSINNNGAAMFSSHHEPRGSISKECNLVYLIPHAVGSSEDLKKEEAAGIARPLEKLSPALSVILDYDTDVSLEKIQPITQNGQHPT
Sequence of Prostaglandin G/H synthase 1 (P23219 whole entry): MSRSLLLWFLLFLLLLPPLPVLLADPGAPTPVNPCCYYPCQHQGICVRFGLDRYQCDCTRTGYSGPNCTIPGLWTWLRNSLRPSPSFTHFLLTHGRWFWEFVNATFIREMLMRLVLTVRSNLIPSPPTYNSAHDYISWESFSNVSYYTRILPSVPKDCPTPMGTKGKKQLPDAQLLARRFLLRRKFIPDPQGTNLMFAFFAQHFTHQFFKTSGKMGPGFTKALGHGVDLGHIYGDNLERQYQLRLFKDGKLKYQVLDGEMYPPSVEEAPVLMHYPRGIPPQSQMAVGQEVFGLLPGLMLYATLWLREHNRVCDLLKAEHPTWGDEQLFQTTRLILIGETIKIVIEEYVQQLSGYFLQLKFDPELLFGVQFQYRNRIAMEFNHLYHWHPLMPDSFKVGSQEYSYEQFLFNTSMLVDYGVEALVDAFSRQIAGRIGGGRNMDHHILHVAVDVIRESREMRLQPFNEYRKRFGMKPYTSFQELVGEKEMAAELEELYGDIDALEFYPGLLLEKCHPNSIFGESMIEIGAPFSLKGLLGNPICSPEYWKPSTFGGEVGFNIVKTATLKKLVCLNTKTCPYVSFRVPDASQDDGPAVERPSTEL

For `COc1ccc2[nH]c3c(c2c1)CCN[C@]31CS[C@@H]2c3c(OC(C)=O)c(C)c4c(c3[C@@H](COC1=O)N1[C@@H]2[C@H]2c3c(cc(C)c(OC)c3O)C[C@@H]([C@@H]1O)N2C)OCO4`, which half-life [1] is on record?
The half-life was 51 h.

What about the clearance [2] of the same molecule?
The clearance was 183 mL/min.

What about the Cmax [3] of the same molecule?
Its Cmax is 107 µg/mL.

With `CN1CC(=O)N2[C@H](c3ccc4c(c3)OCO4)c3[nH]c4ccccc4c3C[C@@H]2C1=O` as the molecule, how does the CL/F [4] read?
Its CL/F is 41.7 mL/min.

And the Ki [5]?
The Ki was 1.2 nM.

And the half-life [6]?
Its half-life is 17.5 h.

Which results are given for `COc1ccc2c(c1)c(CC(=O)OCC(=O)O)c(C)n2C(=O)c1ccc(Cl)cc1` [ACEMETACIN]?
IC50 [7]: 10 nM; IC50 [8]: 10 nM; half-life [9]: 4.5 h

For `Cc1c(-c2ccc(O)cc2)n(Cc2ccc(OCCN3CCCCCC3)cc2)c2ccc(O)cc12` [BAZEDOXIFENE], which AUC [10] is on record?
The AUC was 71 ng·h/mL.

What about the Tmax [11] of the same molecule?
Its Tmax is 2.5 h.

What about the Vd [12] of the same molecule?
The Vd was 14.7 L/kg.

With `CC(C)C[C@H]1C(=O)N2CCC[C@H]2[C@]2(O)O[C@](NC(=O)[C@@H]3C=C4c5cccc6[nH]c(Br)c(c56)C[C@H]4N(C)C3)(C(C)C)C(=O)N12` [BROMOCRIPTINE] as the molecule, how does the bioavailability [13] read?
Its bioavailability is 90%.

What about the half-life [14] of the same molecule?
The half-life was 4.85 h.

What about the AUC [15] of the same molecule?
The AUC was 2.38 ng·h/mL.

For `C=CCN1C[C@H](C(=O)N(CCCN(C)C)C(=O)NCC)C[C@@H]2c3cccc4[nH]cc(c34)C[C@H]21` [CABERGOLINE], which EC50 (Dopamine receptor) is on record?
Its EC50 is 13 nM.

And the Ki (D(1A) dopamine receptor)?
Its Ki is 1.4 nM.

And the CL renal [16]?
The CL renal was 80 mL/min.

What does the source list for `CC(C(=O)O)c1ccc2c(c1)[nH]c1ccc(Cl)cc12` (stereo unspecified) [CARPROFEN]?
Tmax [17]: 1 h; half-life [18]: 8 h

For `CC(C)[C@@]1(NC(=O)[C@@H]2C[C@@H]3c4cccc5[nH]cc(c45)C[C@H]3N(C)C2)O[C@@]2(O)[C@@H]3CCCN3C(=O)[C@H](Cc3ccccc3)N2C1=O` [DIHYDROERGOCRISTINE], which half-life (Half life in human) is on record?
The half-life was 3.5 h.

And the Ki [19]?
Its Ki is 2.4 nM.

With `CCN(CC)C(=O)N[C@H]1C=C2c3cccc4[nH]cc(c34)C[C@H]2N(C)C1` [LISURIDE] as the molecule, how does the half-life [14] read?
Its half-life is 1.8 h.

And the Vd [20]?
The Vd was 1.73 L/kg.

For `C=CC(=O)Nc1cc(Nc2nccc(-c3cn(C)c4ccccc34)n2)c(OC)cc1N(C)CCN(C)C` [OSIMERTINIB], which half-life [21] is on record?
The half-life was 48 h.

What about the Vd [22] of the same molecule?
The Vd was 918 L.

And the Fu [23]?
The Fu was 5%.

And the IC50 [24]?
The IC50 was 27.6 nM.

Which half-life [21] does the source give for `CNCc1ccc(-c2[nH]c3cc(F)cc4c3c2CCNC4=O)cc1` [RUCAPARIB] here?
The half-life was 17 h.

What about the IC50 [25] of the same molecule?
The IC50 was 0.4 nM.

Which results are given for `CC(C)(CO)c1cc2cc(NC(=O)C3(c4ccc5c(c4)OC(F)(F)O5)CC3)c(F)cc2n1C[C@@H](O)CO` [TEZACAFTOR]?
half-life [26]: 25.1 h; Vd/F [27]: 82 L

For `CCOC(=O)c1c(CSc2ccccc2)n(C)c2cc(Br)c(O)c(CN(C)C)c12` [UMIFENOVIR], which Tmax [11] is on record?
Its Tmax is 0.65 h.

And the half-life [21]?
The half-life was 17 h.

And the Cmax [28]?
The Cmax was 0.415 µg/mL.

For `CC[C@]12C=CCN3CC[C@@]4(c5cc([C@@]6(C(=O)OC)C[C@@H]7C[C@@H](C(C)(F)F)CN(Cc8c6[nH]c6ccccc86)C7)c(OC)cc5N(C)[C@H]4[C@@](O)(C(=O)OC)[C@@H]1OC(C)=O)[C@@H]32` [VINFLUNINE], which clearance [29] is on record?
The clearance was 667 mL/min.

With `CCC1=C[C@@H]2CN(C1)Cc1c([nH]c3ccccc13)[C@@](C(=O)OC)(c1cc3c(cc1OC)N(C)[C@H]1[C@@](O)(C(=O)OC)[C@H](OC(C)=O)[C@]4(CC)C=CCN5CC[C@]31[C@@H]54)C2` [VINORELBINE] as the molecule, how does the half-life [30] read?
The half-life was 24.8 h.

And the half-life [6]?
The half-life was 27.7 h.

What about the clearance [31] of the same molecule?
The clearance was 16.2 mL/min/kg.

And the Vd [32]?
The Vd was 25.4 L/kg.

With `COc1cc(C(=O)NS(=O)(=O)c2ccccc2C)ccc1Cc1cn(C)c2ccc(NC(=O)OC3CCCC3)cc12` [ZAFIRLUKAST] as the molecule, how does the CL/F [33] read?
Its CL/F is 333 mL/min.
